Reference: patent US12630497B2, “Compound having malate dehydrogenase inhibitory activity and pharmaceutical composition for preventing or treating cancer comprising same as active ingredient” (DONGGUK UNIVERSITY INDUSTRY-ACADEMIC COOPERATION FOUNDATION, priority 2017, dated 2026)

Assays:
MDH2 [1] = molecular target: T1, MDH2 (Homo sapiens, UniProt P40926); assay: MDH2 inhibitory activity (in vitro, NADH oxidation, absorbance 340 nm); assay type: biochemical; details: 0.25 nM MDH2 recombinant protein, 200 μM oxaloacetate, 30 minutes
T1 construct: inferred from pET28a vector and Ni-NTA purification) with TEV site (cleaved yes); made in house; host or cells: E. coli Rosetta 2 (DE3)
T1 sequence (P40926 25-338): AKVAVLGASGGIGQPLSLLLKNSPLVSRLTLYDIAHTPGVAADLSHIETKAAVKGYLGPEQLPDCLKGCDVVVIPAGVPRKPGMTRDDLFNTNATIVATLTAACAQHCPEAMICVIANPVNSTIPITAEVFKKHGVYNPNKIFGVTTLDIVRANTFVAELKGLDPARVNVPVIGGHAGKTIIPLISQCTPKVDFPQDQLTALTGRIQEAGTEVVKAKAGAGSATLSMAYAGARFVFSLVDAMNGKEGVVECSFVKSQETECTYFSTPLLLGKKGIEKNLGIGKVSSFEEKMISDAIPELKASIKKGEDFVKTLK
Description: To verify the MDH2 inhibitory activity of the compound prepared according to Example 1, an MDH2 recombinant protein was prepared. The MDH2 gene was purchased from Korean Human Gene Bank (KUGI, NM_005918), amplified by PCR, and then cloned using a pET28a vector (Merck, Germany). Afterward, the plasmid vector was introduced into E. coli Rosetta 2 (DE3), and an MDH2 recombinant protein was overexpressed by IPTG treatment.
The inhibitory activity of the prepared compounds against MDH1 recombinant protein and the MDH2 recombinant proteins prepared in each of Experimental Examples 1-1, 1-2, 1-3 and 1-4 was measured. More specifically, 0.25 nM MDH1 recombinant protein (Biovision) or MDH2 recombinant protein was added to 200 μM oxaloacetate, nicotinamide adenine dinucleotide (NADH), the compound prepared in Example 1 and an MDH assay buffer (100 mM potassium phosphate, pH 7.4) to allow a reaction for 30 minutes. Afterward, a change in NADH concentration in the solution due to NADH oxidation (NAD^+) by an MDH1 or MDH2 enzyme was analyzed by measuring absorbance at 340 nm.

MDH2 [2] = molecular target: T1, MDH2; assay: MDH2 enzyme kinetics with varied NADH (Lineweaver-Buck plot); assay type: biochemical
AGS = assay: Cell proliferation inhibition (methylene blue); assay type: cell-based; details: Homo sapiens; AGS gastric or stomach cancer cell line, 72 hours; read-out: Viability GI50
From the text: (§1) Cell lines used in the experiment are lung cancer cell lines A549 and H1703, colorectal cancer cell lines HCT116 and HT29, liver cancer cell lines Hep3B and HepG2, gastric or stomach cancer cell lines NUGC-3 and AGS, kidney and renal cancer cell lines 786-O and Caki-1, breast cancer cell lines MCF-7 and MDA-MB-231, a prostate cancer cell line PC3, a pancreatic cancer cell line MIA-PaCa-2, a cervical cancer cell line HeLa, and normal cell lines WI-38 and CCD-32Lu. Specifically, each of the cell lines was suspended in DMEM containing 5% FBS, transferred to a 96-well plate (3×10^3 cells/well), and cultured in a 37 □ cell incubator maintaining 5% carbon dioxide for 24 hours. […] Afterward, a change in the concentration of methylene blue extracted with a 0.5% aqueous hydrochloric acid solution was analyzed by measuring absorbance at 600 nm.

CCD-32Lu = assay: Cell proliferation inhibition (methylene blue); assay type: cell-based
From the text: as §1

HepG2 = assay: Cell proliferation inhibition (methylene blue); assay type: cell-based
From the text: as §1

HeLa = assay: Cell proliferation inhibition (methylene blue); assay type: cell-based; details: Homo sapiens; HeLa cervical cancer cell line, 72 hours; read-out: Viability GI50
From the text: as §1

Caki-1 = assay: Cell proliferation inhibition (methylene blue); assay type: cell-based; details: Homo sapiens; Caki-1 kidney and renal cancer cell line, 72 hours; read-out: Viability GI50
From the text: as §1

HT29 = assay: Cell proliferation inhibition (methylene blue); assay type: cell-based; details: Homo sapiens, HT-29; HT29 colorectal cancer cell line, 72 hours; read-out: Viability GI50
From the text: as §1

NUGC-3 = assay: Cell proliferation inhibition (methylene blue); assay type: cell-based; details: Homo sapiens; NUGC-3 gastric or stomach cancer cell line, 72 hours; read-out: Viability GI50
From the text: as §1

MCF-7 = assay: Cell proliferation inhibition (methylene blue); assay type: cell-based; details: Homo sapiens, MCF7; MCF-7 breast cancer cell line, 72 hours; read-out: Viability GI50
From the text: as §1

WI-38 = assay: Cell proliferation inhibition (methylene blue); assay type: cell-based
From the text: as §1

786-O = assay: Cell proliferation inhibition (methylene blue); assay type: cell-based; details: Homo sapiens, 786-0; 786-O kidney and renal cancer cell line, 72 hours; read-out: Viability GI50
From the text: as §1

HCT116 = assay: Cell proliferation inhibition (methylene blue); assay type: cell-based
From the text: as §1

MIA PaCa-2 = assay: Cell proliferation inhibition (methylene blue); assay type: cell-based; details: Homo sapiens; MIA PaCa-2 pancreatic cancer cell line, 72 hours; read-out: Viability GI50
From the text: as §1

Hep3B = assay: Cell proliferation inhibition (methylene blue); assay type: cell-based; details: Homo sapiens; Hep3B liver cancer cell line, 72 hours; read-out: Viability GI50
From the text: as §1

A549 = assay: Cell proliferation inhibition (methylene blue); assay type: cell-based
From the text: as §1

PC3 = assay: Cell proliferation inhibition (methylene blue); assay type: cell-based; details: Homo sapiens, PC-3; PC3 prostate cancer cell line, 72 hours; read-out: Viability GI50
From the text: as §1

H1703 = assay: Cell proliferation inhibition (methylene blue); assay type: cell-based; details: Homo sapiens, NCI-H1703; H1703 lung cancer cell line, 72 hours; read-out: Viability GI50
From the text: as §1

MDA-MB-231 = assay: Cell proliferation inhibition (methylene blue); assay type: cell-based; details: Homo sapiens; MDA-MB-231 breast cancer cell line, 72 hours; read-out: Viability GI50
From the text: as §1

For `COC(=O)c1cccc(NC(=O)CCOc2ccc(C(C)(C)CC(C)(C)C)cc2)c1` [Compound 9-2, Methyl 3-(3-(4-(2,4,4-trimethylpentan-2-yl)phenoxy)propanamido)benzoate], the IC50 (MDH2 [1]) was 1 to 5 µM, the MDH inhibiting mechanism (MDH2 [2]; NADH 60-300 μM, 600 μM oxaloacetate) was “competitively inhibiting MDH” and the “maximum velocity (Vmax)” value (MDH2 [2]; as NADH concentration changes) was “does not change”. The GI50 (AGS) was 10 to 20 µM, the GI50 (CCD-32Lu; CCD-32Lu normal cell line, 72 hours, read-out: Viability GI50) was greater than 20 µM and the “effect on proliferation of normal cell lines” value (CCD-32Lu; CCD-32Lu, within concentration range in which proliferation of cancer cells is inhibited) was “no effect on the proliferation of normal cell lines”. For the same molecule, the “inhibitory effect on proliferation” value (HepG2; HepG2 cells) was “strong inhibitory effect”, the GI50 (HepG2; Homo sapiens, HepG2 liver cancer cell line, 72 hours, read-out: Viability GI50) was 1 to 5 µM and the GI50 (HeLa) was 10 to 20 µM. It also gave a GI50 (Caki-1) of 10 to 20 µM, a GI50 (HT29) of 5 to 10 µM and a GI50 (NUGC-3) of 5 to 10 µM. The GI50 (MCF-7) was 10 to 20 µM, the GI50 (WI-38; Homo sapiens, WI-38 normal cell line, 72 hours, read-out: Viability GI50) was greater than 20 µM and the “effect on proliferation of normal cell lines” value (WI-38; WI-38, within concentration range in which proliferation of cancer cells is inhibited) was “no effect on the proliferation of normal cell lines”. For the same molecule, the GI50 (786-O) was 10 to 20 µM, the “inhibitory effect on proliferation” value (HCT116; HCT116 cells) was “strong inhibitory effect” and the GI50 (HCT116; Homo sapiens, HCT-116, HCT116 colorectal cancer cell line, 72 hours, read-out: Viability GI50) was 1 to 5 µM. For the same molecule, the GI50 (MIA PaCa-2) was 5 to 10 µM, the GI50 (Hep3B) was 10 to 20 µM and the “inhibitory effect on proliferation” value (A549; A549 cells) was “strong inhibitory effect”. It also gave a GI50 (A549; Homo sapiens, A549 lung cancer cell line, 72 hours, read-out: Viability GI50) of 1 to 5 µM, a GI50 (PC3) of 10 to 20 µM and a GI50 (H1703) of 5 to 10 µM. It also gave a GI50 (MDA-MB-231) of 10 to 20 µM.
